Reference: patent US10875876B2, “Cyclized sulfamoylarylamide derivatives and the use thereof as medicaments for the treatment of hepatitis B” (priority 2015, dated 2020)
Like-named read-outs stand apart in the source and are kept apart here.

How the values were obtained:
HBV = assay: anti HBV activity, HepG2.117 cell line, intracellular HBV DNA by realtime PCR; format: cell-based; conditions: HepG2.117 cell line (Tet-off), 3 days of treatment, intracellular HBV DNA quantified by realtime PCR, read-out: HBV-AVE-HepG2.117 EC50
Protocol: The anti HBV activity was measured using the HepG2.117 cell line, a stable, inducibly HBV producing cell line, which replicates HBV in the absence of doxicycline (Tet-off system). For the antiviral assay, HBV replication was induced, followed by a treatment with serially diluted compound in 96-well plates in duplicate. After 3 days of treatment, the antiviral activity was determined by quantification of intracellular HBV DNA using realtime PCR and an HBV specific primer set and probe.

[1] = Cytotoxicity in HepG2 cells, Resazurin assay; conditions: human, HepG2 cells, TOX-HepG2-4 d CC50 (μM), HepG2 cells incubated for 4 days, viability by Resazurin assay
[2] = Hepatitis B virus, HepG2.117, 72 h

Structure (SMILES)	EC50 (HBV; [2]) [nM]	CC50 at 4 days [1] [µM]	EC50 (HBV) [nM]
Cn1cc2c(c1C(=O)Nc1ccc(F)c(C(F)F)c1)CC[C@H](CO)NS2(=O)=O [Compound 184, (3R)—N-[3-(difluoromethyl)-4-fluoro-phenyl]-3-(hydroxymethyl)-7-methyl-1,1-dioxo-2,3,4,5-tetrahydropyrrolo[3,4-f]thiazepine-6-carboxamide]	20	> 25	
Cn1cc2c(c1C(=O)Nc1ccc(F)c(F)c1)OCC(C)(C)NS2(=O)=O [Compound 133, N-(3,4-difluorophenyl)-3,3,7-trimethyl-1,1-dioxo-2,4-dihydropyrrolo-[3,4-b][1,4,5]oxathiazepine-6-carboxamide]	11	> 25	
CC1/C=C\Cc2c(cn(C)c2C(=O)Nc2ccc(F)c(F)c2)S(=O)(=O)N1 (stereo not drawn) [Compound 5, (4Z)—N-(3,4-difluorophenyl)-3,8-dimethyl-1,1-dioxo-3,6-dihydro-2H-pyrrolo[3,4-g]thiazocine-7-carboxamide]	180	> 25	
CC(C)C1C=Cc2c(cn(C)c2C(=O)Nc2ccc(F)c(C(F)F)c2)S(=O)(=O)N1 (stereo not drawn) [Compound 82, N-[3-(difluoromethyl)-4-fluoro-phenyl]-3-isopropyl-7-methyl-1,1-dioxo-2,3-dihydropyrrolo[3,4-f]thiazepine-6-carboxamide]	4	> 25	
COC(C)(C)C1COc2c(cn(C)c2C(=O)Nc2ccc(F)c(F)c2)S(=O)(=O)N1 (stereo not drawn) [Compound 80, N-(3,4-difluorophenyl)-3-(1-methoxy-1-methyl-ethyl)-7-methyl-1,1-dioxo-3,4-dihydro-2H-pyrrolo[3,4-b][1,4,5]oxathiazepine-6-carboxamide]	18	> 25	
Cn1cc2c(c1C(=O)Nc1ccnc(C(F)F)c1)C=CC(C(F)F)NS2(=O)=O (stereo not drawn) [compound 247]	> 130	> 25	
C[C@H]1CCc2c(cn(C)c2C(=O)Nc2ccc(F)c(Cl)c2F)S(=O)(=O)N1 (single isomer, unassigned) [Compound 54, (3*S)—N-(3-chloro-2,4-difluoro-phenyl)-3,7-dimethyl-1,1-dioxo-2,3,4,5-tetrahydropyrrolo[3,4-f]thiazepine-6-carboxamide]	4	> 25	
Cn1cc2c(c1C(=O)Nc1ccc(F)c(Cl)c1)OC[C@H](C(O)C1CC1)NS2(=O)=O (single isomer, unassigned) [Compound 207a, N-(3-chloro-4-fluoro-phenyl)-3-[cyclopropyl(hydroxy)methyl]-7-methyl-1,1-dioxo-3,4-dihydro-2H-pyrrolo[3,4-b][1,4,5]oxathiazepine-6-carboxamide]	8	> 25	
Cn1cc2c(c1C(=O)Nc1ccc(F)c(C(F)F)c1)OC[C@H](C(C)(C)O)NS2(=O)=O [Compound 100, (3R)—N-[3-(difluoromethyl)-4-fluoro-phenyl]-3-(1-hydroxy-1-methyl-ethyl)-7-methyl-1,1-dioxo-3,4-dihydro-2H-pyrrolo[3,4-b][1,4,5]oxathiazepine-6-carboxamide]	3	> 25	
Cn1cc2c(c1C(=O)Nc1cc(F)c(F)c(F)c1)CCC(C(C)(C)O)NS2(=O)=O (single isomer, unassigned) [Compound 149a, 3-(1-hydroxy-1-methyl-ethyl)-7-methyl-1,1-dioxo-N-(3,4,5-trifluorophenyl)-2,3,4,5-tetrahydropyrrolo[3,4-f]thiazepine-6-carboxamide]		> 25	> 125
Cc1cc(CC2(C)COc3c(cn(C)c3C(=O)Nc3ccc(F)c(C#N)c3)S(=O)(=O)N2)no1 (single isomer, unassigned) [Compound 220a, N-(3-cyano-4-fluoro-phenyl)-3,7-dimethyl-3-[(5-methylisoxazol-3-yl)methyl]-1,1-dioxo-2,4-dihydropyrrolo[3,4-b][1,4,5]oxathiazepine-6-carboxamide]		> 25	7
Cc1ccc(NC(=O)c2c(F)ccc3c2OC[C@H](C(C)C)NS3(=O)=O)cc1F [compound 232]	> 500	> 25	
CC(C)[C@H]1COc2c(cn(C)c2C(=O)Nc2ccc(F)c(F)c2)S(=O)(=O)N1 [Compound 22, (3S)—N-(3,4-difluorophenyl)-3-isopropyl-7-methyl-1,1-dioxo-3,4-dihydro-2H-pyrrolo[3,4-b][1,4,5]oxathiazepine-6-carboxamide]	9	> 25	
Cn1cc2c(c1C(=O)Nc1ccc(F)c(C#N)c1)OC[C@H](C(O)C1CC1)NS2(=O)=O (stereo partly drawn) [Compound 120a, (3R)—N-(3-cyano-4-fluoro-phenyl)-3-[cyclopropyl(hydroxy)methyl]-7-methyl-1,1-dioxo-3,4-dihydro-2H-pyrrolo[3,4-b][1,4,5]oxathiazepine-6-carboxamide]	7	> 25	
CC1COc2c(ccc(F)c2C(=O)Nc2ccc(F)c(F)c2)S(=O)(=O)N1 (stereo not drawn) [Compound 12, N-(3,4-difluorophenyl)-7-fluoro-3-methyl-1,1-dioxo-3,4-dihydro-2H-5,1λ^6,2-benzoxathiazepine-6-carboxamide]	350	> 25	
Cn1cc2c(c1C(=O)Nc1ccc(F)c(F)c1)OCC(C)(Cc1cccnc1)NS2(=O)=O (single isomer, unassigned) [Compound 199a, N-(3,4-difluorophenyl)-3,7-dimethyl-1,1-dioxo-3-(3-pyridylmethyl)-2,4-dihydropyrrolo[3,4-b][1,4,5]oxathiazepine-6-carboxamide]		> 25	30
CC(C)C1CCc2c(cn(C)c2C(=O)Nc2ccnc(C(F)F)c2)S(=O)(=O)N1 (stereo not drawn) [Compound 108, N-[2-(difluoromethyl)-4-pyridyl]-3-isopropyl-7-methyl-1,1-dioxo-2,3,4,5-tetrahydropyrrolo[3,4-f]thiazepine-6-carboxamide]	16	> 25	
CCC1(C)COc2c(cn(C)c2C(=O)Nc2ccc(F)c(F)c2)S(=O)(=O)N1 (single isomer, unassigned) [Compound 134a, N-(3,4-difluorophenyl)-3-ethyl-3,7-dimethyl-1,1-dioxo-2,4-dihydropyrrolo[3,4-b][1,4,5]oxathiazepine-6-carboxamide]	8	> 25	
Cn1cc2c(c1C(=O)Nc1ccc(F)c(F)c1)OC[C@@H]([C@@H](O)c1ccccc1)NS2(=O)=O [Compound 63, (3S)—N-(3,4-difluorophenyl)-3-[(S)-hydroxy(phenyl)methyl]-7-methyl-1,1-dioxo-3,4-dihydro-2H-pyrrolo[3,4-b][1,4,5]oxathiazepine-6-carboxamide]	240	> 25	
CC(C)[C@@H]1COc2c(cn(C)c2C(=O)Nc2ccc(F)c(F)c2)S(=O)(=O)N1 [Compound 27, (3R)—N-(3,4-difluorophenyl)-3-isopropyl-7-methyl-1,1-dioxo-3,4-dihydro-2H-pyrrolo[3,4-b][1,4,5]oxathiazepine-6-carboxamide]	110	> 25	
Cn1cc2c(c1C(=O)Nc1ccc(F)c(C(F)F)c1)CCC(C(C)(C)O)NS2(=O)=O (single isomer, unassigned) [Compound 150a, N-[3-(difluoromethyl)-4-fluoro-phenyl]-3-(1-hydroxy-1-methyl-ethyl)-7-methyl-1,1-dioxo-2,3,4,5-tetrahydropyrrolo[3,4-f]thiazepine-6-carboxamide]		> 25	> 125
C[C@H]1C=Cc2c(cn(C)c2C(=O)Nc2ccc(F)c(Cl)c2F)S(=O)(=O)N1 (single isomer, unassigned) [Compound 52, (3*S)—N-(3-chloro-2,4-difluoro-phenyl)-3,7-dimethyl-1,1-dioxo-2,3-dihydropyrrolo[3,4-f]thiazepine-6-carboxamide]	56	> 25	
Cn1cc2c(c1C(=O)Nc1ccc(F)c(F)c1)OCC(CO)NS2(=O)=O (stereo not drawn) [Compound 83, N-(3,4-difluorophenyl)-3-(hydroxymethyl)-7-methyl-1,1-dioxo-3,4-dihydro-2H-pyrrolo[3,4-b][1,4,5]oxathiazepine-6-carboxamide]	58	> 25	
C[C@@H]1NS(=O)(=O)c2cn(C)c(C(=O)Nc3ccc(F)c(F)c3)c2O[C@H]1C [compound 229]	> 500	> 25	
Cn1cc2c(c1C(=O)Nc1ccc(F)c(F)c1)OCC1(COC1)NS2(=O)=O [Compound 24, N-(3,4-difluorophenyl)-7-methyl-1,1-dioxo-spiro[2,4-dihydropyrrolo-[3,4-b][1,4,5]oxathiazepine-3,3′-oxetane]-6-carboxamide]	68	> 25	
CC1CCC/C=C/Cc2c(cn(C)c2C(=O)Nc2ccc(F)c(F)c2)S(=O)(=O)N1 (stereo not drawn) [Compound 2b, 8E-N-(3,4-difluorophenyl)-4,13-dimethyl-2,2-dioxo-2λ^6-thia-3,13-diazabicyclo[9.3.0]tetradeca-1(14),8,11-triene-12-carboxamide]	490	> 25	
Cn1cc2c(c1C(=O)Nc1ccc(F)c(Cl)c1)OCC1(CCOC1)NS2(=O)=O (racemic) [Compound 212, N-(3-chloro-4-fluoro-phenyl)-7-methyl-1,1-dioxo-spiro[2,4-dihydropyrrolo[3,4-b][1,4,5]oxathiazepine-3,3′-tetrahydrofuran]-6-carboxamide]	7	> 25	
